Laboratory results from patent US20250262279A1, “DOSE REGIMEN FOR LONG-ACTING GLP1/GLUCAGON RECEPTOR AGONISTS” (Boehringer Ingelheim International GmbH, priority 2021, published 2025).
Where two headings read alike, the source gives them in different places.

Assay: Example 1: plasma pharmacokinetics
Format: in vivo
Details: human, sc; for Cmax: read-out: Cmax (gMean)

SMILES: CC[C@H](C)[C@H](NC(=O)[C@H](Cc1ccccc1)NC(=O)[C@H](CC(=O)O)NC(=O)[C@H](CCCCN)NC(=O)[C@H](C)NC(=O)[C@H](C)NC(=O)[C@H](CCCNC(=N)N)NC(=O)[C@H](CCC(=O)O)NC(=O)[C@H](CC(=O)O)NC(=O)[C@H](CC(C)C)NC(=O)[C@H](Cc1ccc(O)cc1)NC(=O)[C@H](CCCCN)NC(=O)[C@H](CO)NC(=O)[C@H](Cc1ccc(O)cc1)NC(=O)[C@H](CC(=O)O)NC(=O)[C@H](CO)NC(=O)[C@@H](NC(=O)[C@H](Cc1ccccc1)NC(=O)[C@@H](NC(=O)CNC(=O)[C@H](CCC(N)=O)NC(=O)C1(NC(=O)[C@@H](N)Cc2c[nH]cn2)CCC1)[C@@H](C)O)[C@@H](C)O)C(=O)N[C@@H](CCCCNC(=O)CNC(=O)CNC(=O)[C@H](CO)NC(=O)CNC(=O)[C@H](CO)NC(=O)CNC(=O)CC[C@H](NC(=O)CCCCCCCCCCCCCCCCC(=O)O)C(=O)O)C(=O)N[C@@H](Cc1c[nH]c2ccccc12)C(=O)N[C@@H](CC(C)C)C(=O)N[C@@H](CCC(=O)O)C(=O)N[C@@H](CO)C(=O)N[C@@H](C)C(N)=O [Compound I]
- AUC(0-t) (0.3 mg, Ex.1 twice weekly scheme, wk 1, 0.3 mg sc, read-out: AUC0-72 (gMean)): 0.342 µM·h
- Cmax (0.3 mg, Ex.1 twice weekly scheme, wk 1, 0.3 mg sc): 5.38 nM
- AUC(0-t) (0.3 mg, Ex.1 weekly scheme 1, wk 1, 0.3 mg sc, read-out: AUC0-168 (gMean)): 0.617 µM·h
- Cmax (0.3 mg, Ex.1 weekly scheme 1, wk 1, 0.3 mg sc): 5.08 nM
- AUC(0-t) (0.4 mg, Ex.1 weekly scheme 2, wk 1, 0.4 mg sc, read-out: AUC0-168 (gMean)): 0.818 µM·h
- Cmax (0.4 mg, Ex.1 weekly scheme 2, wk 1, 0.4 mg sc): 6.51 nM
- AUC(0-t) (0.6 mg, Ex.1 twice weekly scheme, wk 3, 0.6 mg sc, read-out: AUC0-72 (gMean)): 1.2 µM·h
- Cmax (0.6 mg, Ex.1 twice weekly scheme, wk 3, 0.6 mg sc): 20.4 nM
- AUC(0-t) (0.6 mg, Ex.1 weekly scheme 1, wk 2, 0.6 mg sc, read-out: AUC0-168 (gMean)): 1.41 µM·h
- Cmax (0.6 mg, Ex.1 weekly scheme 1, wk 2, 0.6 mg sc): 12.3 nM
- AUC(0-t) (0.6 mg, Ex.1 weekly scheme 3, wk 1, 0.6 mg sc, read-out: AUC0-168 (gMean)): 1.24 µM·h
- Cmax (0.6 mg, Ex.1 weekly scheme 3, wk 1, 0.6 mg sc): 10.7 nM
- AUC(0-t) (0.6 mg, Ex.1 weekly scheme 3, wk 2, 0.6 mg sc, read-out: AUC0-168 (gMean)): 1.71 µM·h
- Cmax (0.6 mg, Ex.1 weekly scheme 3, wk 2, 0.6 mg sc): 14.4 nM
- AUC(0-t) (0.6 mg, Ex.1 weekly scheme 4, wk 1, 0.6 mg sc, read-out: AUC0-168 (gMean)): 1.57 µM·h
- Cmax (0.6 mg, Ex.1 weekly scheme 4, wk 1, 0.6 mg sc): 15.7 nM
- AUC(0-t) (0.6 mg, Ex.1 weekly scheme 4, wk 3, 0.6 mg sc, read-out: AUC0-168 (gMean)): 2.49 µM·h
- Cmax (0.6 mg, Ex.1 weekly scheme 4, wk 3, 0.6 mg sc): 22.3 nM
- AUC(0-t) (0.6 mg, Ex.1 weekly scheme 5, wk 1, 0.6 mg sc, read-out: AUC0-168 (gMean)): 1.44 µM·h
- Cmax (0.6 mg, Ex.1 weekly scheme 5, wk 1, 0.6 mg sc): 13.2 nM
- AUC(0-t) (0.8 mg, Ex.1 weekly scheme 2, wk 2, 0.8 mg sc, read-out: AUC0-168 (gMean)): 2.04 µM·h
- Cmax (0.8 mg, Ex.1 weekly scheme 2, wk 2, 0.8 mg sc): 16.9 nM
- AUC(0-t) (0.9 mg, Ex.1 twice weekly scheme, wk 5, 0.9 mg sc, read-out: AUC0-72 (gMean)): 2.39 µM·h
- Cmax (0.9 mg, Ex.1 twice weekly scheme, wk 5, 0.9 mg sc): 40.8 nM
- AUC(0-t) (0.9 mg, Ex.1 twice weekly scheme, wk 6, 0.9 mg sc, read-out: AUC0-72 (gMean)): 2.78 µM·h
- Cmax (0.9 mg, Ex.1 twice weekly scheme, wk 6, 0.9 mg sc): 49.2 nM
- AUC(0-t) (0.9 mg, Ex.1 weekly scheme 1, wk 3, 0.9 mg sc, read-out: AUC0-168 (gMean)): 2.48 µM·h
- Cmax (0.9 mg, Ex.1 weekly scheme 1, wk 3, 0.9 mg sc): 20.6 nM
- AUC(0-t) (1.2 mg, Ex.1 twice weekly scheme, wk 7, 1.2 mg sc, read-out: AUC0-72 (gMean)): 3.56 µM·h
- Cmax (1.2 mg, Ex.1 twice weekly scheme, wk 7, 1.2 mg sc): 58.8 nM
- AUC(0-t) (1.2 mg, Ex.1 weekly scheme 1, wk 4, 1.2 mg sc, read-out: AUC0-168 (gMean)): 3.36 µM·h
- Cmax (1.2 mg, Ex.1 weekly scheme 1, wk 4, 1.2 mg sc): 28.1 nM
- AUC(0-t) (1.2 mg, Ex.1 weekly scheme 2, wk 3, 1.2 mg sc, read-out: AUC0-168 (gMean)): 3.56 µM·h
- Cmax (1.2 mg, Ex.1 weekly scheme 2, wk 3, 1.2 mg sc): 31.7 nM
- AUC(0-t) (1.2 mg, Ex.1 weekly scheme 3, wk 3, 1.2 mg sc, read-out: AUC0-168 (gMean)): 3.23 µM·h
- Cmax (1.2 mg, Ex.1 weekly scheme 3, wk 3, 1.2 mg sc): 28.1 nM
- AUC(0-t) (1.2 mg, Ex.1 weekly scheme 4, wk 5, 1.2 mg sc, read-out: AUC0-168 (gMean)): 3.94 µM·h
- Cmax (1.2 mg, Ex.1 weekly scheme 4, wk 5, 1.2 mg sc): 36 nM
- AUC(0-t) (1.2 mg, Ex.1 weekly scheme 4, wk 6, 1.2 mg sc, read-out: AUC0-168 (gMean)): 4.7 µM·h
- Cmax (1.2 mg, Ex.1 weekly scheme 4, wk 6, 1.2 mg sc): 41.9 nM
- AUC(0-t) (1.2 mg, Ex.1 weekly scheme 4, wk 7, 1.2 mg sc, read-out: AUC0-168 (gMean)): 5.19 µM·h
- Cmax (1.2 mg, Ex.1 weekly scheme 4, wk 7, 1.2 mg sc): 49 nM
- AUC(0-t) (1.2 mg, Ex.1 weekly scheme 5, wk 3, 1.2 mg sc, read-out: AUC0-168 (gMean)): 3.79 µM·h
- Cmax (1.2 mg, Ex.1 weekly scheme 5, wk 3, 1.2 mg sc): 31.5 nM
- AUC(0-t) (1.5 mg, Ex.1 twice weekly scheme, wk 9, 1.5 mg sc, read-out: AUC0-72 (gMean)): 5 µM·h
- Cmax (1.5 mg, Ex.1 twice weekly scheme, wk 9, 1.5 mg sc): 78.3 nM
- AUC(0-t) (1.5 mg, Ex.1 weekly scheme 1, wk 5, 1.5 mg sc, read-out: AUC0-168 (gMean)): 4.49 µM·h
- Cmax (1.5 mg, Ex.1 weekly scheme 1, wk 5, 1.5 mg sc): 37.8 nM
- AUC(0-t) (1.6 mg, Ex.1 weekly scheme 2, wk 4, 1.6 mg sc, read-out: AUC0-168 (gMean)): 5.13 µM·h
- Cmax (1.6 mg, Ex.1 weekly scheme 2, wk 4, 1.6 mg sc): 44.3 nM
- AUC(0-t) (1.8 mg, Ex.1 twice weekly scheme, wk 11, 1.8 mg sc, read-out: AUC0-72 (gMean)): 5.69 µM·h
